From PubChem BioAssay AID330 (DTP/NCI, 2004) come the findings set out here.

In this assay the test system is P388 leukemia ip, CD2F1 mice, survival T/C. Briefly: NCI In Vivo Anticancer Drug Screen. Data for tumor model P388 Leukemia (intraperitoneal) in CD2F1 (CDF1) mice. The conditions noted are these: endpoint: median survival time, higher = longer survival. The gist of the method:
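Mice carrying the transplanted tumor received test compound or vehicle. Survival was recorded in each group, and the value is the treated-group measurement divided by that of the vehicle-treated control group.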

Setting [1] is: dose: 25.0 mg/kg/injection, schedule: Q01DX009 (ip), vehicle: saline with Tween-80.
Where [2] appears, read: dose: 50.0 mg/kg/injection, schedule: Q01DX009 (ip), vehicle: saline with Tween-80.
[3] abbreviates: dose: 100.0 mg/kg/injection, schedule: Q01DX009 (ip), vehicle: saline with Tween-80.
[4] abbreviates: dose: 12.5 mg/kg/injection, schedule: Q01DX009 (ip), vehicle: Klucel (hydroxypropylcellulose) (HPC).
The mark [5] stands for this setting: dose: 25.0 mg/kg/injection, schedule: Q01DX009 (ip), vehicle: Klucel (hydroxypropylcellulose) (HPC).
Where [6] appears, read: dose: 50.0 mg/kg/injection, schedule: Q01DX009 (ip), vehicle: Klucel (hydroxypropylcellulose) (HPC).
[7] abbreviates: dose: 50.0 mg/kg/injection, schedule: Q04DX003 (ip), vehicle: saline with Tween-80.
The mark [8] stands for this setting: dose: 100.0 mg/kg/injection, schedule: Q01DX001 (ip), vehicle: Klucel (hydroxypropylcellulose) (HPC).
The mark [9] stands for this setting: dose: 200.0 mg/kg/injection, schedule: Q01DX001 (ip), vehicle: Klucel (hydroxypropylcellulose) (HPC).
[10] abbreviates: dose: 400.0 mg/kg/injection, schedule: Q01DX001 (ip), vehicle: Klucel (hydroxypropylcellulose) (HPC).
[11] abbreviates: dose: 50.0 mg/kg/injection, schedule: Q01DX005 (ip), vehicle: Klucel (hydroxypropylcellulose) (HPC).
Setting [12] is: dose: 60.0 mg/kg/injection, schedule: Q01DX005 (ip), vehicle: saline with Tween-80.
Where [13] appears, read: dose: 120.0 mg/kg/injection, schedule: Q01DX005 (ip), vehicle: saline with Tween-80.
Where [14] appears, read: dose: 240.0 mg/kg/injection, schedule: Q01DX005 (ip), vehicle: saline with Tween-80.
[15] abbreviates: dose: 50.0 mg/kg/injection, schedule: Q01DX005 (ip), vehicle: saline with Tween-80.
The mark [16] stands for this setting: dose: 100.0 mg/kg/injection, schedule: Q01DX005 (ip), vehicle: saline with Tween-80.

“And” between values parts separate entries of the source, which are not always exact repeats. Equal entries are not always repeated. Inconclusive results and toxic doses are left out.

In the case of `COC1/C=C/OC2(C)Oc3c(C)c(O)c4c(O)c(c(/C=N/N5C(C)CN(Cc6ccc(C(C)(C)C)cc6)CC5C)c(O)c4c3C2=O)NC(=O)/C(C)=C\C=C\C(C)C(O)C(C)C(O)C(C)C(OC(C)=O)C1C` (stereo unspecified), the T/C under setting [1] is 119 % of control; the T/C (dose: 25.0 mg/kg/injection, schedule: Q01DX009 (ip), vehicle: suspension in saline) is 104 % of control; the T/C under setting [2] was 102 % of control and 94 % of control; the T/C (dose: 50.0 mg/kg/injection, schedule: Q01DX009 (ip), vehicle: suspension in saline) is 108 % of control; the T/C under setting [3] was 119 % of control; the T/C (dose: 100.0 mg/kg/injection, schedule: Q01DX009 (ip), vehicle: suspension in saline) is 100 % of control. Also, the T/C (dose: 200.0 mg/kg/injection, schedule: Q01DX009 (ip), vehicle: suspension in saline) is 95 % of control.
`CN(C)C(=S)S(=O)(=O)c1ccccc1`: the T/C is, setting by setting: under setting [4], 123 % of control; under setting [5], 123 % of control; under setting [6], 123 % of control.
Turning to `Cc1ccccc1Nc1n[nH]c(=S)s1`, the T/C runs as follows: under setting [7], 95 % of control; (dose: 100.0 mg/kg/injection, schedule: Q04DX003 (ip), vehicle: saline with Tween-80) 100 % of control; (dose: 200.0 mg/kg/injection, schedule: Q04DX003 (ip), vehicle: saline with Tween-80) 95 % of control.
As to `CCCCCCCC/C=C/CCCCCCCC(=O)OCC(=O)OCC`, the T/C was 102 % of control under setting [6]; 93 % of control (dose: 100.0 mg/kg/injection, schedule: Q01DX009 (ip), vehicle: Klucel (hydroxypropylcellulose) (HPC)); 104 % of control (dose: 200.0 mg/kg/injection, schedule: Q01DX009 (ip), vehicle: Klucel (hydroxypropylcellulose) (HPC)).
Regarding `COc1cc(C=NC2CCCCC2)c(Br)c(OC)c1OC`, the T/C runs as follows: under setting [8], 107 % of control; under setting [9], 107 % of control; under setting [10], 107 % of control.
For `O=C1c2ccccc2C(=O)c2nc(CBr)c(CBr)nc21`, the T/C is 100 % of control (dose: 5.0 mg/kg/injection, schedule: Q01DX005 (ip), vehicle: saline); 100 % of control (dose: 10.0 mg/kg/injection, schedule: Q01DX005 (ip), vehicle: saline); 97 % of control (dose: 20.0 mg/kg/injection, schedule: Q01DX005 (ip), vehicle: saline).
For the compound `CCCCOc1ccc2nc(C)cc(N/N=C/c3ccc(OC)c4ccccc34)c2c1`, the T/C (dose: 12.5 mg/kg/injection, schedule: Q01DX005 (ip), vehicle: Klucel (hydroxypropylcellulose) (HPC)) is 94 % of control; the T/C (dose: 25.0 mg/kg/injection, schedule: Q01DX005 (ip), vehicle: Klucel (hydroxypropylcellulose) (HPC)) was 94 % of control; the T/C under setting [11] is 89 % of control and 97 % of control.
With `COc1ccc(OC)c(NC(=O)CCCC(=O)C(C#N)c2ccc(CC#N)cc2)c1` (stereo unspecified), the T/C is 98 % of control under setting [12], 98 % of control under setting [13] and 103 % of control under setting [14].
`C=CC(C)(C)C12CC3C(=O)N/C(=C\c4cnc[nH]4)C(=O)N3C1Nc1ccccc12` (stereo unspecified): the T/C (dose: 6.25 mg/kg/injection, schedule: Q01DX009 (ip), vehicle: Klucel (hydroxypropylcellulose) (HPC)) was 118 % of control and 97 % of control; the T/C (dose: 6.25 mg/kg/injection, schedule: Q01DX009 (ip), vehicle: saline with Tween-80) was 86 % of control; the T/C under setting [4] is 116 % of control and 95 % of control; the T/C under setting [5] is 98 % of control and 106 % of control; the T/C under setting [1] is 92 % of control; the T/C under setting [6] was 106 % of control and 109 % of control. Also, the T/C under setting [2] was 100 % of control.
`CC(=O)N1NC(=O)c2c(c3ccccc3n2C)C1c1ccc(C)cc1` (stereo unspecified): the T/C reads like this: under setting [8], 100 % of control; under setting [9], 110 % of control; under setting [10], 110 % of control.
Turning to `Nc1ncc[nH]c1=O`, the T/C by setting is: (dose: 50.0 mg/kg/injection, schedule: Q01DX009 (ip), vehicle: saline) 100 % of control; (dose: 100.0 mg/kg/injection, schedule: Q01DX009 (ip), vehicle: saline) 97 % of control.
Take `CCOC(=O)c1sc(N)nc1C`: the T/C is 111 % of control (dose: 9.0 mg/kg/injection, schedule: Q01DX009 (ip), vehicle: saline with Tween-80); 90 % of control (dose: 18.0 mg/kg/injection, schedule: Q01DX009 (ip), vehicle: saline with Tween-80); 105 % of control under setting [1]; 99 % of control (dose: 36.0 mg/kg/injection, schedule: Q01DX009 (ip), vehicle: saline with Tween-80); 106 % of control and 112 % of control and 113 % of control under setting [2]; 108 % of control and 115 % of control and 97 % of control under setting [3]. Further, for the setting “dose: 200.0 mg/kg/injection, schedule: Q01DX009 (ip), vehicle: saline with Tween-80”, the T/C is 102 % of control and 112 % of control.
As for `C=C(C)[C@H]1O[C@H]2CC[C@@]3(C)[C@@](O)(CC[C@H]4[C@@H]5OC(C)(C)[C@H]6C[C@@H]7C(=C)Cc8c(Cl)cc9[nH]c(c5c9c8C76O)[C@@]43C)[C@@]23O[C@H]3[C@H]1O` (stereo partly specified), the T/C reads like this: (dose: 0.5 mg/kg/injection, schedule: Q01DX005 (ip), vehicle: Klucel (hydroxypropylcellulose) (HPC)) 101 % of control; (dose: 1.0 mg/kg/injection, schedule: Q01DX005 (ip), vehicle: Klucel (hydroxypropylcellulose) (HPC)) 97 % of control; (dose: 2.0 mg/kg/injection, schedule: Q01DX005 (ip), vehicle: Klucel (hydroxypropylcellulose) (HPC)) 87 % of control; (dose: 3.75 mg/kg/injection, schedule: Q01DX005 (ip), vehicle: Klucel (hydroxypropylcellulose) (HPC)) 107 % of control; (dose: 4.0 mg/kg/injection, schedule: Q01DX005 (ip), vehicle: Klucel (hydroxypropylcellulose) (HPC)) 93 % of control; (dose: 7.5 mg/kg/injection, schedule: Q01DX005 (ip), vehicle: Klucel (hydroxypropylcellulose) (HPC)) 115 % of control. The T/C (dose: 15.0 mg/kg/injection, schedule: Q01DX005 (ip), vehicle: Klucel (hydroxypropylcellulose) (HPC)) is 106 % of control; the T/C (dose: 30.0 mg/kg/injection, schedule: Q01DX005 (ip), vehicle: Klucel (hydroxypropylcellulose) (HPC)) was 107 % of control; the T/C (dose: 60.0 mg/kg/injection, schedule: Q01DX005 (ip), vehicle: Klucel (hydroxypropylcellulose) (HPC)) is 107 % of control.
For `Nc1ccc(N=Nc2ccncc2)c2ccccc12`, the T/C reads like this: under setting [15], 100 % of control; under setting [16], 100 % of control.
`CCOC(=O)c1nc(OCC)nc(OCC)c1C#CCO`: the T/C is 95 % of control (dose: 12.5 mg/kg/injection, schedule: Q01DX009 (ip), vehicle: distilled water + Tween-80); 93 % of control (dose: 25.0 mg/kg/injection, schedule: Q01DX009 (ip), vehicle: distilled water + Tween-80); 102 % of control (dose: 50.0 mg/kg/injection, schedule: Q01DX009 (ip), vehicle: distilled water + Tween-80); 98 % of control (dose: 100.0 mg/kg/injection, schedule: Q01DX009 (ip), vehicle: distilled water + Tween-80).
Consider `NNC(=O)c1c(O)ccc2ccccc12`, for which the T/C under setting [15] is 95 % of control; the T/C under setting [16] is 93 % of control; the T/C (dose: 200.0 mg/kg/injection, schedule: Q01DX005 (ip), vehicle: saline with Tween-80) was 100 % of control.
For the compound `COc1cc(Br)c(-c2coc3c(OC)c(OC)ccc3c2=O)cc1OC`, the T/C is 89 % of control (dose: 15.0 mg/kg/injection, schedule: Q01DX005 (ip), vehicle: saline with Tween-80); 88 % of control (dose: 30.0 mg/kg/injection, schedule: Q01DX005 (ip), vehicle: saline with Tween-80); 86 % of control under setting [12].
On to `CC(C)(C)c1ccc(-c2cc3nc(-c4ccccc4)cc(=O)n3[nH]2)cc1`, for which the T/C runs as follows: under setting [12], 100 % of control; under setting [13], 98 % of control; under setting [14], 98 % of control.
As to `COc1cc(C=Nc2cccc(Cl)c2)ccc1N(CCCl)CCCl`, the T/C was 172 % of control (dose: 25.0 mg/kg/injection, schedule: Q04DX003 (ip), vehicle: saline with Tween-80) and 181 % of control under setting [7].
Take `S=C(Nc1ccccc1)P(C(=S)Nc1ccccc1)C1CCCCC1`: the T/C is 108 % of control under setting [11]; 101 % of control (dose: 100.0 mg/kg/injection, schedule: Q01DX005 (ip), vehicle: Klucel (hydroxypropylcellulose) (HPC)); 99 % of control (dose: 200.0 mg/kg/injection, schedule: Q01DX005 (ip), vehicle: Klucel (hydroxypropylcellulose) (HPC)).
